{"source": "ChEMBL document CHEMBL4270494", "about": "“Recent insights into synthetic β-carbolines with anti-cancer activities” (Eur J Med Chem, 2017)", "key": {"CCRF S-180": {"test_system": "CCRF S-180", "assay": "Antitumor activity against mouse S180 cells implanted in ICR mouse assessed as inhibition of tumor growth at 0.1 umol/kg, ip for 7 consecutive days starting 24 hrs after tumor cell inoculation relative to untreated control", "format": "functional", "settings": "CCRF S-180, ip, read-out: TGI"}, "MCF7 [1]": {"test_system": "MCF7", "assay": "Cytotoxicity against human MCF7 cells by MTT assay", "format": "functional, cell-based"}, "MCF7 [2]": {"test_system": "MCF7", "assay": "Induction of apoptosis in human MCF7 cells by Annexin V-FITC dual staining based flow cytometry (reference value: 0.03%)", "format": "functional"}, "HepG2": {"test_system": "HepG2", "assay": "Cytotoxicity against human HepG2 cells by MTT assay", "format": "functional, cell-based"}, "HeLa": {"test_system": "HeLa", "assay": "Cytotoxicity against human HeLa cells by MTT assay", "format": "functional, cell-based"}, "HL-60": {"test_system": "HL-60", "assay": "Cytotoxicity against human HL60(TB) cells incubated for 48 hrs by SRB assay", "format": "functional", "settings": "HL-60, 48 h, read-out: LC50 (the source's name)"}, "A549": {"test_system": "A549", "assay": "Cytotoxicity against human A549 cells assessed as reduction in cell viability incubated for 48 hrs by MTT assay", "format": "functional, cell-based", "settings": "A549, 48 h"}, "PC-3": {"test_system": "PC-3", "assay": "Cytotoxicity against human PC3 cells assessed as reduction in cell viability incubated for 48 hrs by MTT assay", "format": "functional, cell-based", "settings": "PC-3, 48 h"}, "HT-29": {"test_system": "HT-29", "assay": "Cytotoxicity against human HT-29 cells assessed as reduction in cell viability incubated for 48 hrs by MTT assay", "format": "functional, cell-based", "settings": "HT-29, 48 h"}, "B16": {"test_system": "B16", "assay": "Cytotoxicity against mouse B16 cells assessed as reduction in cell viability incubated for 48 hrs by MTT assay", "format": "functional, cell-based", "settings": "B16, 48 h"}, "NCI-H1299": {"test_system": "NCI-H1299", "assay": "Cytotoxicity against human NCI-H1299 cells", "format": "functional, cell-based"}, "A-375": {"test_system": "A-375", "assay": "Cytotoxicity against human A375 cells", "format": "functional, cell-based"}, "IMR-90": {"test_system": "IMR-90", "assay": "Cytotoxicity against human IMR90 cells", "format": "functional, cell-based"}}, "note": "Structures can show the parent of a compound that is named as a salt."}
{"smiles": "COc1cccc2c1C(=O)c1c(O)c3c(c(O)c1C2=O)C[C@@](O)(C(=O)CO)C[C@@H]3O[C@H]1C[C@H](N)[C@H](O)[C@H](C)O1", "note": "[DOXORUBICIN HYDROCHLORIDE]", "values": [{"measurement": "inhibition in vivo at 0.1 µmol/kg", "setting": "CCRF S-180", "result": 61.1, "unit": "%"}]}
{"smiles": "CC(=O)N1N=C(c2ccco2)CC1c1cc2c([nH]c3ccccc32)c(-c2ccc(C(F)(F)F)cc2)n1", "note": "(configuration not stated)", "values": [{"measurement": "IC50", "setting": "MCF7 [1]", "result": "1.56 to 5.29", "unit": "µM"}, {"measurement": "Activity", "setting": "MCF7 [2]", "result": 62.64, "unit": "%"}]}
{"smiles": "CC[C@H](C)[C@H](NC(=O)[C@H](Cc1c[nH]c2ccccc12)NC(=O)[C@H](Cc1c[nH]c2ccccc12)NC(=O)c1cc2c([nH]c3ccccc32)c(-c2ccc(O)c(OC)c2)n1)C(=O)OCc1ccccc1", "values": [{"measurement": "inhibition in vivo at 0.1 µmol/kg", "setting": "CCRF S-180", "result": 63.4, "unit": "%"}]}
{"smiles": "COC(=O)c1cc2c([nH]c3ccccc32)c(-c2ccc(OCc3cn(-c4cccc(Cl)c4Cl)nn3)cc2)n1", "values": [{"measurement": "IC50", "setting": "HepG2", "result": 32, "unit": "µM"}, {"measurement": "IC50", "setting": "HeLa", "result": 46, "unit": "µM"}]}
{"smiles": "COc1ccc2[nH]cc(-c3nccc4c3[nH]c3ccc(OC)cc34)c2c1", "values": [{"measurement": "CC50", "setting": "HL-60", "result": 4.2, "unit": "µM"}]}
{"smiles": "COc1cc(C(=O)/C=C/c2cc3c([nH]c4ccccc43)c(-c3cc(OC)c(OC)c(OC)c3)n2)cc(OC)c1OC", "values": [{"measurement": "IC50", "setting": "A549", "result": 5.3, "unit": "µM"}, {"measurement": "IC50", "setting": "PC-3", "result": 19.6, "unit": "µM"}, {"measurement": "IC50", "setting": "HT-29", "result": 23.1, "unit": "µM"}, {"measurement": "IC50", "setting": "B16", "result": 6.37, "unit": "µM"}]}
{"smiles": "O=C(/C=C/c1cc2c([nH]c3ccccc32)c(-c2ccc(C(F)(F)F)cc2)n1)c1ccco1", "values": [{"measurement": "IC50", "setting": "MCF7 [1]", "result": "1.56 to 5.29", "unit": "µM"}, {"measurement": "Activity", "setting": "MCF7 [2]", "result": 58.29, "unit": "%"}]}
{"smiles": "c1ccc2c(c1)[nH]c1c(CNCCOCCNCc3nccc4c3[nH]c3ccccc34)nccc12", "values": [{"measurement": "IC50", "setting": "NCI-H1299", "result": 1.6, "unit": "µM"}, {"measurement": "IC50", "setting": "A-375", "result": 3, "unit": "µM"}, {"measurement": "IC50", "setting": "IMR-90", "result": "1.6 to 201", "unit": "µM"}]}
{"smiles": "COc1cc(-c2nc(C(=O)N[C@@H](Cc3c[nH]c4ccccc34)C(=O)N[C@@H](Cc3c[nH]c4ccccc34)C(=O)N[C@@H](CO)C(=O)OCc3ccccc3)cc3c2[nH]c2ccccc23)ccc1O", "values": [{"measurement": "inhibition in vivo at 0.1 µmol/kg", "setting": "CCRF S-180", "result": 62.9, "unit": "%"}]}
